In the supplement of paper PMC10307832:

Assays:
Experiment in all cases: relative viability (nuclei count vs DMSO), 5 days (fraction); higher = more cells survive
Zebularine + Tozasertib = compound: O=c1ncccn1[C@@H]1O[C@H](CO)[C@@H](O)[C@H]1O [Zebularine] + Cc1cc(Nc2cc(N3CCN(C)CC3)nc(Sc3ccc(NC(=O)C4CC4)cc3)n2)n[nH]1 [Tozasertib] (partner 0.1 µM)
Procedure, shortened: (§1)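 Relative viability was taken as the ratio of nuclei in treated wells to nuclei in vehicle wells. Lung cancer cell lines in 1536-well plates received compounds by pin tool one day after seeding, either one drug alone or a fixed anchor-drug dose plus five library-drug doses (not always all listed) in √10 steps. Nuclei were counted on 4× images after 5 days of treatment, and values are medians of duplicate plates.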

Zebularine + Pemetrexed = compound: O=c1ncccn1[C@@H]1O[C@H](CO)[C@@H](O)[C@H]1O [Zebularine] + Nc1nc2[nH]cc(CCc3ccc(C(=O)N[C@@H](CCC(=O)O)C(=O)O)cc3)c2c(=O)[nH]1 [Pemetrexed] (partner 0.2 µM)
Procedure, shortened: as §1

BI-D1870 + Dasatinib = compound: CC(C)CCN1c2nc(Nc3cc(F)c(O)c(F)c3)ncc2N(C)C(=O)C1C [BI-D1870] + Cc1nc(Nc2ncc(C(=O)Nc3c(C)cccc3Cl)s2)cc(N2CCN(CCO)CC2)n1 [Dasatinib] (partner 0.075 µM)
Procedure, shortened: as §1

Zebularine + Bortezomib = compound: O=c1ncccn1[C@@H]1O[C@H](CO)[C@@H](O)[C@H]1O [Zebularine] + CC(C)C[C@H](NC(=O)[C@H](Cc1ccccc1)NC(=O)c1cnccn1)B(O)O [Bortezomib] (partner 0.002 µM)
Procedure, shortened: as §1

Row | Cell Line | relative viability (Zebularine + Tozasertib; first compound 1 µM) | relative viability (Zebularine + Tozasertib; first compound 3.162 µM) | relative viability (Zebularine + Tozasertib; first compound 10 µM) | relative viability (Zebularine + Tozasertib; first compound 31.62 µM) | relative viability (Zebularine + Tozasertib; first compound 100 µM) | relative viability (Zebularine + Pemetrexed; first compound 1 µM) | relative viability (Zebularine + Pemetrexed; first compound 3.162 µM) | relative viability (Zebularine + Pemetrexed; first compound 10 µM) | relative viability (Zebularine + Pemetrexed; first compound 31.62 µM) | relative viability (Zebularine + Pemetrexed; first compound 100 µM) | relative viability (BI-D1870 + Dasatinib; first compound 0.04 µM) | relative viability (BI-D1870 + Dasatinib; first compound 0.1265 µM) | relative viability (BI-D1870 + Dasatinib; first compound 0.4 µM) | relative viability (BI-D1870 + Dasatinib; first compound 1.265 µM) | relative viability (BI-D1870 + Dasatinib; first compound 4 µM) | relative viability (Zebularine + Bortezomib; first compound 1 µM) | relative viability (Zebularine + Bortezomib; first compound 3.162 µM) | relative viability (Zebularine + Bortezomib; first compound 10 µM) | relative viability (Zebularine + Bortezomib; first compound 31.62 µM) | relative viability (Zebularine + Bortezomib; first compound 100 µM)
1 | 201T | 1.03 | 0.938 | 0.647 | 0.977 | 0.595 | 0.359 | 0.343 | 0.35 | 0.311 | 0.271 | 0.59 | 0.569 | 0.571 | 0.548 | 0.544 | 1.13 | 1.1 | 1 | 1.15 | 1.11
2 | A-427 | 0.201 | 0.194 | 0.222 | 0.155 | 0.152 | 1.08 | 0.991 | 0.95 | 0.538 | 0.294 | 0.775 | 0.593 | 0.706 | 0.756 | 0.793 | 1.12 | 0.899 | 0.665 | 0.381 | 0.247
3 | ABC-1 | 0.193 | 0.196 | 0.164 | 0.189 | 0.148 | – | – | – | – | – | 0.598 | 0.53 | – | 0.577 | 0.409 | 0.295 | 0.248 | 0.249 | 0.275 | 0.349
4 | BEN | 0.612 | 0.563 | 0.379 | 0.354 | 0.43 | 0.943 | 0.636 | 0.584 | 0.562 | 0.306 | 0.291 | 0.293 | 0.349 | 0.38 | 0.304 | 0.938 | 0.714 | 0.345 | 0.372 | 0.265
5 | CAL-12T | 0.379 | 0.369 | 0.241 | 0.379 | 0.247 | 1.43 | 1.1 | 0.914 | 1.18 | 0.47 | 0.489 | 0.272 | 0.411 | 0.512 | 0.176 | 1.22 | 1.01 | – | 0.68 | 0.483
6 | COR-L23 | 0.216 | 0.263 | 0.186 | 0.181 | 0.119 | 0.201 | 0.199 | 0.193 | 0.207 | 0.168 | 0.58 | 0.414 | 0.504 | 0.565 | 0.434 | 0.928 | 1.13 | 0.363 | 0.318 | 0.251
7 | COR-L 105 | 0.316 | 0.285 | 0.345 | 0.367 | 0.319 | 1.26 | 1.06 | 0.987 | 1.24 | 0.824 | 0.303 | 0.294 | 0.485 | 0.322 | 0.384 | 0.978 | 0.771 | 0.694 | 1.21 | 0.843
8 | Calu-6 | – | – | – | – | – | – | – | – | – | – | – | – | – | – | – | 1.04 | 0.85 | 0.914 | 0.77 | 0.306
9 | ChaGo-K-1 | 0.22 | 0.208 | 0.211 | 0.172 | 0.195 | 0.269 | 0.257 | 0.254 | 0.242 | 0.203 | 0.662 | 0.516 | 0.606 | 0.549 | 0.51 | 1.27 | 0.982 | 0.558 | 0.678 | 0.284
10 | EBC-1 | – | – | – | – | – | – | – | – | – | – | – | – | – | – | – | 0.528 | 0.547 | 0.508 | 0.572 | 0.623
11 | EKVX | 0.44 | 0.409 | 0.3 | 0.374 | 0.335 | 0.396 | 0.431 | – | 0.433 | 0.397 | 0.719 | 0.456 | 0.522 | 0.554 | 0.454 | 1.27 | 1.05 | – | 0.88 | 1.06
12 | EMC-BAC-2 | 0.326 | 0.313 | 0.266 | 0.28 | 0.313 | 0.496 | 0.466 | 0.428 | 0.458 | 0.474 | 0.344 | 0.326 | 0.377 | 0.316 | 0.296 | 1.1 | 1.09 | 0.732 | 1.09 | 1.11
13 | EPLC-272H | 0.222 | 0.179 | 0.156 | 0.317 | 0.256 | 0.36 | 0.331 | – | 0.342 | 0.264 | 0.414 | 0.38 | 0.338 | 0.364 | 0.32 | 1 | – | – | 1.07 | 0.836
14 | H3255 | 0.542 | 0.61 | 0.271 | 0.106 | 0.627 | 0.641 | 0.576 | 0.553 | 0.516 | 0.563 | 0.436 | 0.458 | 0.367 | 0.433 | 0.48 | 0.897 | 0.736 | 0.419 | 0.775 | 0.942
15 | HARA | 0.105 | – | – | 0.0886 | 0.0769 | 0.295 | 0.253 | 0.214 | 0.324 | 0.307 | 0.195 | 0.195 | 0.233 | 0.282 | 0.302 | 1.14 | 1.11 | – | 1.09 | 0.86
16 | HCC-15 | 0.308 | 0.414 | 0.339 | 0.386 | 0.179 | 0.23 | 0.213 | 0.201 | 0.219 | 0.186 | 0.656 | 0.533 | 0.582 | 0.517 | 0.287 | 1.19 | 1.03 | 0.723 | 0.962 | 0.456
17 | HCC-44 | 1.14 | 1.05 | 0.82 | 0.418 | 0.361 | 0.723 | 0.625 | 0.646 | 0.679 | 0.445 | – | – | – | – | – | 0.95 | 0.868 | 0.483 | 0.827 | 0.251
18 | HCC-78 | 0.423 | 0.429 | 0.219 | 0.278 | 0.259 | 0.88 | 0.941 | – | 0.882 | 0.978 | 0.362 | 0.382 | 0.422 | 0.442 | 0.33 | 0.497 | 0.512 | 0.407 | 0.42 | 0.355
